{
  "source": "ChEMBL document CHEMBL5625206",
  "about": "“Design, synthesis, and evaluation of novel pleuromutilin aryl acrylate derivatives as promising broad-spectrum antibiotics especially for combatting multi-drug resistant gram-negative bacteria” (Eur J Med Chem, 2023)",
  "key": {"Escherichia coli [1]": {"tested_on": "Escherichia coli", "assay": "Bactericidal activity against Escherichia coli ATCC 25922 at 4 to 8 times MIC incubated for 8 to 12 hrs by time kill assay relative to control", "type": "functional", "settings": "time 8-12 hrs"}, "[2]": {"assay": "Cytotoxicity against HEK293 cells incubated for 24 hrs by CCK8 assay", "type": "toxicity, cell-based", "settings": "human"}, "Staphylococcus aureus [3]": {"tested_on": "Staphylococcus aureus", "assay": "Inhibition of biofilm formation of methicillin-resistant Staphylococcus aureus ATCC 33591 at MIC incubated for 24 hrs by crystal violet staining based analysis relative to control", "type": "functional"}, "Escherichia coli [4]": {"tested_on": "Escherichia coli", "assay": "Disruption of cell membrane integrity in Escherichia coli ATCC 25922 assessed as wrinkled cell surface at MIC incubated for 4 hrs by FESEM analysis", "type": "functional, organism-based"}, "Staphylococcus aureus [5]": {"tested_on": "Staphylococcus aureus", "assay": "Disruption of cell membrane integrity in methicillin-resistant Staphylococcus aureus ATCC 33591 at 4 times MIC incubated for 4 hrs by FESEM analysis", "type": "functional, organism-based"}, "Escherichia coli [6]": {"tested_on": "Escherichia coli", "assay": "Disruption of cell membrane integrity in Escherichia coli ATCC 25922 at 4 times MIC incubated for 4 hrs by FESEM analysis", "type": "functional, organism-based"}, "Staphylococcus aureus [7]": {"tested_on": "Staphylococcus aureus", "assay": "Antibacterial activity against methicillin-resistant Staphylococcus aureus ATCC 33591 infected in neutropenic Kunming mouse model assessed as reduction in infection-induced inflammatory cell inflammation in kidney at 10 mg/kg, ip measured after 7 days", "type": "functional, organism-based", "settings": "time 7.0 day"}, "Staphylococcus aureus [8]": {"tested_on": "Staphylococcus aureus", "assay": "Antibacterial activity against methicillin-resistant Staphylococcus aureus ATCC 33591 infected in neutropenic Kunming mouse model assessed as reduction in infection-induced lung damage at 20 mg/kg, ip measured after 7 days", "type": "functional, organism-based", "settings": "time 7.0 day"}, "Staphylococcus aureus [9]": {"tested_on": "Staphylococcus aureus", "assay": "Antibacterial activity against methicillin-resistant Staphylococcus aureus ATCC 33591 infected in neutropenic Kunming mouse model assessed as reduction in infection-induced inflammatory cell infiltration in liver at 20 mg/kg, ip measured after 7 days", "type": "functional, organism-based", "settings": "time 7.0 day"}, "[10]": {"assay": "MRT in fasted Sprague-Dawley rat at 1 mg/kg, iv by LC-MS/MS analysis", "type": "ADME, organism-based", "settings": "in vivo"}, "[11]": {"assay": "Toxicity in fasted Sprague-Dawley rat assessed as mortality rate at 500 mg/kg, IG measured for 14 days", "type": "organism-based", "settings": "in vivo, po, time 14 day"}, "[12]": {"assay": "Toxicity in fasted male Sprague-Dawley rat assessed as body weight at 331 mg/kg, IG measured on same day (reference value: 212.7 +/- 13.2 g)", "type": "organism-based", "settings": "in vivo, po"}, "[13]": {"assay": "Toxicity in fasted female Sprague-Dawley rat assessed as body weight at 331 mg/kg, IG measured on same day (reference value: 165.2 +/- 8.1 g)", "type": "organism-based", "settings": "in vivo, po"}, "[14]": {"assay": "Toxicity in fasted female Sprague-Dawley rat assessed as body weight at 100 mg/kg, IG measured after 7 days (reference value: 188.2 +/- 9.2 g)", "type": "organism-based", "settings": "in vivo, po, 168 h, time 7 day"}, "[15]": {"assay": "Toxicity in fasted female Sprague-Dawley rat assessed as body weight at 224 mg/kg, IG measured after 7 days (reference value: 188.2 +/- 9.2 g)", "type": "organism-based", "settings": "in vivo, po, 168 h, time 7 day"}, "[16]": {"assay": "Toxicity in fasted male Sprague-Dawley rat assessed as body weight at 331 mg/kg, IG measured after 7 days (reference value: 260.5 +/- 12.7 g)", "type": "organism-based", "settings": "in vivo, po, 168 h, time 7 day"}, "[17]": {"assay": "Toxicity in fasted male Sprague-Dawley rat assessed as body weight at 500 mg/kg, IG measured after 7 days (reference value: 260.5 +/- 12.7 g)", "type": "organism-based", "settings": "in vivo, po, 168 h, time 7 day"}, "[18]": {"assay": "Toxicity in fasted male Sprague-Dawley rat assessed as body weight at 224 mg/kg, IG measured after 14 days (reference value: 311.2 +/- 13.6 g)", "type": "organism-based", "settings": "in vivo, po, 336 h, time 14 day"}, "[19]": {"assay": "Toxicity in fasted female Sprague-Dawley rat assessed as body weight at 224 mg/kg, IG measured after 14 days (reference value: 214.3 +/- 9.8 g)", "type": "organism-based", "settings": "in vivo, po, 336 h, time 14 day"}, "[20]": {"assay": "Toxicity in fasted female Sprague-Dawley rat assessed as animal growth rate at 100 mg/kg, IG measured for 14 days (reference value: 29.85 +/- 4.97 g)", "type": "organism-based", "settings": "in vivo, po, 336 h, time 14 day"}, "[21]": {"assay": "Toxicity in fasted male Sprague-Dawley rat assessed as animal growth rate at 500 mg/kg, IG measured for 14 days (reference value: 46.53 +/- 3.19 g)", "type": "organism-based", "settings": "in vivo, po, 336 h, time 14 day"}, "[22]": {"assay": "Toxicity in fasted female Sprague-Dawley rat assessed as animal growth rate at 500 mg/kg, IG measured for 14 days (reference value: 29.85 +/- 4.97 g)", "type": "organism-based", "settings": "in vivo, po, 336 h, time 14 day"}, "[23]": {"assay": "Toxicity in fasted male Sprague-Dawley rat assessed as relative liver weight ratio at 100 mg/kg, IG measured for 14 days (reference value: 3.616 +/- 0.286)", "type": "organism-based", "settings": "in vivo, po, 336 h, time 14 day"}, "[24]": {"assay": "Toxicity in fasted female Sprague-Dawley rat assessed as relative liver weight ratio at 100 mg/kg, IG measured for 14 days (reference value: 3.199 +/- 0.062)", "type": "organism-based", "settings": "in vivo, po, 336 h, time 14 day"}, "[25]": {"assay": "Toxicity in fasted male Sprague-Dawley rat assessed as relative liver weight ratio at 148 mg/kg, IG measured for 14 days (reference value: 3.616 +/- 0.286)", "type": "organism-based", "settings": "in vivo, po, 336 h, time 14 day"}, "[26]": {"assay": "Toxicity in fasted female Sprague-Dawley rat assessed as relative kidney weight ratio at 224 mg/kg, IG measured for 14 days (reference value: 0.802 +/- 0.031)", "type": "organism-based", "settings": "in vivo, po, 336 h, time 14 day"}, "[27]": {"assay": "Toxicity in fasted female Sprague-Dawley rat assessed as relative kidney weight ratio at 331 mg/kg, IG measured for 14 days (reference value: 0.802 +/- 0.031)", "type": "organism-based", "settings": "in vivo, po, 336 h, time 14 day"}, "[28]": {"assay": "Toxicity in fasted female Sprague-Dawley rat assessed as relative heart weight ratio at 148 mg/kg, IG measured for 14 days (reference value: 0.429 +/- 0.016)", "type": "organism-based", "settings": "in vivo, po, 336 h, time 14 day"}, "[29]": {"assay": "Toxicity in fasted female Sprague-Dawley rat assessed as relative heart weight ratio at 331 mg/kg, IG measured for 14 days (reference value: 0.429 +/- 0.016)", "type": "organism-based", "settings": "in vivo, po, 336 h, time 14 day"}, "[30]": {"assay": "Toxicity in fasted female Sprague-Dawley rat assessed as relative heart weight ratio at 500 mg/kg, IG measured for 14 days (reference value: 0.429 +/- 0.016)", "type": "organism-based", "settings": "in vivo, po, 336 h, time 14 day"}, "[31]": {"assay": "Toxicity in fasted male Sprague-Dawley rat assessed as relative lung weight ratio at 224 mg/kg, IG measured for 14 days (reference value: 0.437 +/- 0.064)", "type": "organism-based", "settings": "in vivo, po, 336 h, time 14 day"}, "[32]": {"assay": "Toxicity in fasted female Sprague-Dawley rat assessed as relative lung weight ratio at 224 mg/kg, IG measured for 14 days (reference value: 0.534 +/- 0025)", "type": "organism-based", "settings": "in vivo, po, 336 h, time 14 day"}, "[33]": {"assay": "Toxicity in fasted female Sprague-Dawley rat assessed as relative spleen weight ratio at 148 mg/kg, IG measured for 14 days (reference value: 0.223 +/- 0.019)", "type": "organism-based", "settings": "in vivo, po, 336 h, time 14 day"}, "[34]": {"assay": "Toxicity in fasted male Sprague-Dawley rat assessed as relative spleen weight ratio at 331 mg/kg, IG measured for 14 days (reference value: 0.246 +/- 0.037)", "type": "organism-based", "settings": "in vivo, po, 336 h, time 14 day"}, "[35]": {"assay": "Toxicity in fasted female Sprague-Dawley rat assessed as relative spleen weight ratio at 500 mg/kg, IG measured for 14 days (reference value: 0.223 +/- 0.019)", "type": "organism-based", "settings": "in vivo, po, 336 h, time 14 day"}, "[36]": {"assay": "Toxicity in fasted male Sprague-Dawley rat assessed as relative testis weight ratio at 100 mg/kg, IG measured for 14 days (reference value: 0.993 +/- 0.052)", "type": "organism-based", "settings": "in vivo, po, 336 h, time 14 day"}, "[37]": {"assay": "Toxicity in fasted male Sprague-Dawley rat assessed as relative testis weight ratio at 500 mg/kg, IG measured for 14 days (reference value: 0.993 +/- 0.052)", "type": "organism-based", "settings": "in vivo, po, 336 h, time 14 day"}},
  "note": "Active and inactive are the calls of the source. The rule behind the calls is not given here.",
  "data": [
    {"smiles": "C=C[C@]1(C)C[C@@H](OC(=O)COC(=O)/C=C/c2ccc(N(C)C)cc2)[C@]2(C)[C@H](C)CC[C@]3(CCC(=O)[C@H]32)[C@@H](C)[C@@H]1O", "values": [
      {"measurement": "Activity", "setting": "Escherichia coli [1]", "value": 100, "unit": "%"},
      {"measurement": "CC50 at 24 h", "setting": "[2]", "value": 34.6, "unit": "µM"},
      {"measurement": "inhibition (INH)", "setting": "Staphylococcus aureus [3]", "value": 56.51, "unit": "%"},
      {"measurement": "Activity", "setting": "Escherichia coli [4]", "value": "Active"},
      {"measurement": "Activity", "setting": "Staphylococcus aureus [5]", "value": "Active"},
      {"measurement": "Activity", "setting": "Escherichia coli [6]", "value": "Active"},
      {"measurement": "Activity", "setting": "Staphylococcus aureus [7]", "value": "inactive"},
      {"measurement": "Activity", "setting": "Staphylococcus aureus [8]", "value": "Active"},
      {"measurement": "Activity", "setting": "Staphylococcus aureus [9]", "value": "Active"},
      {"measurement": "MRT", "setting": "[10]", "value": 42.6, "unit": "min"},
      {"measurement": "mortality at 336 h", "setting": "[11]", "value": 10, "unit": "%"},
      {"measurement": "Activity", "setting": "[12]", "value": 217.4, "unit": "g"},
      {"measurement": "Activity", "setting": "[13]", "value": 171.3, "unit": "g"},
      {"measurement": "Activity", "setting": "[14]", "value": 188.2, "unit": "g"},
      {"measurement": "Activity", "setting": "[15]", "value": 191.2, "unit": "g"},
      {"measurement": "Activity", "setting": "[16]", "value": 268, "unit": "g"},
      {"measurement": "Activity", "setting": "[17]", "value": 251.3, "unit": "g"},
      {"measurement": "Activity", "setting": "[18]", "value": 304.9, "unit": "g"},
      {"measurement": "Activity", "setting": "[19]", "value": 217.4, "unit": "g"},
      {"measurement": "Activity", "setting": "[20]", "value": 31.22, "unit": "%"},
      {"measurement": "Activity", "setting": "[21]", "value": 43.65, "unit": "%"},
      {"measurement": "Activity", "setting": "[22]", "value": 30.22, "unit": "%"},
      {"measurement": "Ratio", "setting": "[23]", "value": 3.623},
      {"measurement": "Ratio", "setting": "[24]", "value": 3.195},
      {"measurement": "Ratio", "setting": "[25]", "value": 3.59},
      {"measurement": "Ratio", "setting": "[26]", "value": 0.839},
      {"measurement": "Ratio", "setting": "[27]", "value": 0.832},
      {"measurement": "Ratio", "setting": "[28]", "value": 0.447},
      {"measurement": "Ratio", "setting": "[29]", "value": 0.471},
      {"measurement": "Ratio", "setting": "[30]", "value": 0.449},
      {"measurement": "Ratio", "setting": "[31]", "value": 0.411},
      {"measurement": "Ratio", "setting": "[32]", "value": 0.531},
      {"measurement": "Ratio", "setting": "[33]", "value": 0.238},
      {"measurement": "Ratio", "setting": "[34]", "value": 0.235},
      {"measurement": "Ratio", "setting": "[35]", "value": 0.23},
      {"measurement": "Ratio", "setting": "[36]", "value": 1.048},
      {"measurement": "Ratio", "setting": "[37]", "value": 0.956}
    ]}
  ]
}
